Measured values from US20130336940A1, “MODIFIED PIG ISLETS FOR DIABETES TREATMENT” (UNIVERSITE CATHOLIQUE DE LOUVAIN, priority 2011, published 2013).

Experiments:
pig pancreas = assay: Pancreatic hormonal content for insulin/glucagon (RIA) after STZ; type: in vivo
Experimental: (§1) Five doses (0, 30, 50, 75, 100 mg/kg) of filter-sterilized Streptozotocin (STZ) (Sigma, Bornem, Belgium) were tested. STZ was solubilised in citrate buffer (25% v/v Na citrate, 23% v/v citric acid, 52% v/v H2O, pH 4.5) and filtered before injection in the external jugular vein (Dufrane, Transplantation, 2006).
For pancreatic hormonal content, insulin and glucagon were first extracted from small biopsies of pancreas taken in the 3 zones (head, body, tail) before being quantified by radio immuno assay (RIA).
For the extraction, ˜1 g of pancreas was cut into small fragments (˜1-2 mm^3) and 5 mL of a solution composed of 75.75% CH3CH2OH, 24.22% H2O, 0.03% HCl were added. The following steps were performed with the samples kept on ice. Samples were mixed (Ultra-Turrax T25 [Janke & Kunkel IKA—Labortechnik, Staufen, Germany]) for 20 seconds 4 times and 5 mL of a solution of 75% CH3CH2OH, 22% H2O, 3% HCl were added to the mixture. The samples were then sonicated 4×20 seconds (Sonifier B 12 [Branson Sonic Power Company, Danbury, Conn., USA]) and centrifugated 10 minutes at 4° C. at 1500 rpm. The first supernatant formed was removed and kept at −20° C. 2 mL of a solution of 75% CH3CH2OH, 23.5% H2O, 1.5% HCl were added to the precipitate and a second step of sonication was performed. The samples were then kept at −20° C. overnight. After a step of centrifugation 10 minutes at 4° C. at 1500 rpm, the second supernatant was removed and kept at −20° C. Thereafter, 2 mL of a solution of 75% CH3CH2OH, 23.5% H2O, 1.5% HCl were added to the precipitate and the mixture was sonicated and centrifuged 10 minutes at 4° C. at 1500 rpm and the third supernatant removed. The three supernatants were then pooled and constituted the pancreas extract. […] The supernatants were immediately removed and the contents of insulin and glucagon were determined by a Wallac Wizard 1470 Automatic gamma counter (GMI Inc, Ramsey, Minn., USA) for 1 minute.

pig pancreatic islets = assay: Histomorphometry of pancreatic islets prior to isolation (alpha/beta cells) after STZ; type: in vivo
Experimental: as §1
The cellular composition of islets was determined by immunohistochemistry in small samples of human and pig pancreas taken during dissection of the gland. After overnight fixation in formol at room temperature, the small biopsies were embedded in paraffin and cut in 5 μm sections. These sections were thereafter deparaffinized, rehydrated and washed with a solution of Tris-HCl-Buffered solution 0.05 mol/L (TBS, pH 7.4). After inactivation of endogenous peroxidase by a 30-minute incubation in 0.3% H2O2, the sections were incubated with 10% normal goat serum (NGS) in TBS for 30 minutes. The sections were then incubated overnight at 4° C. with glucagon rabbit polyclonal antibody (BD Bioscience, Erembodegem, Belgium) diluted at 1:100. After washes in TBS, the slides were incubated for 30 minutes with anti-rabbit-IgG (1:500) and these antibodies detected by EnVision anti-rabbit system (Dako A/S, Glostrup, Denmark) for 1 hour at room temperature. […] The glucagon staining was followed by the detection of the β-cells by alkaline phosphatase anti-alkaline phosphatase system (APAAP). After washing, aspecific sites were again inhibited by a 30 minutes incubation with 10% normal goat serum (NGS) in TBS. The slides were thereafter incubated overnight with mouse insulin monoclonal antibody (Abcam, Cambridge, UK) diluted at 1:800.
Islets from human and pig pancreas were compared for cellular proportion and geometric distribution of α and β cells (centre/periphery). Following the islets size, 3 groups of 5 islets (50-99, 100-149 and 150-200 μm) were compared in native/modified young pig versus human pancreas.
The number of small β-cell clusters (≦3 insulin-immunoreactive cells) in the total area of the slide was also assessed. The number of these clusters was manually counted through the entire slide. The area of the slide was measured with ImageJ 1.43i software after capture of pictures of slides with a camera Nikon Coolscan 5000, accessory FH-G1) and calibrated with a stage micrometer to correspond to the number of pixels evidenced on the image analyser.

monkeys = details: cited from earlier work
[1] = STZ 50 mg/kg, by linear regression
[2] = STZ 75 mg/kg, islets of 50-100 μm, prior to isolation

With CN(N=O)C(=O)N[C@H]1C(O)O[C@H](CO)[C@@H](O)[C@@H]1O (mixture of isomers) [STZ, Streptozotocin] the “theoretical reduction of the pancreatic insulin content” value (pig pancreas; STZ 30 mg/kg, by linear regression) was 30%, the “pancreatic glucagon content, humans vs treated pigs” value (pig pancreas; STZ 30/50/75 mg/kg, 3 months post-STZ treatment) was “higher in humans” and the pancreatic insulin content (pig pancreas; STZ 75-100 mg/kg) was “significant reduction”. For the same compound, the “theoretical increase in the proportion of α cells” value (pig pancreatic islets; [1]) was 30%, the “theoretical reduction of the proportion of β cells” value (pig pancreatic islets; [1]) was 30% and the “number of alpha cells per islet in comparison to humans” value (pig pancreatic islets; [2]) was “higher number of alpha cells”. The “number of beta cells per islet in comparison to humans” value (pig pancreatic islets; [2]) was “lower number of beta cell”, the “number of beta cells per islet in comparison to humans” value (pig pancreatic islets; STZ 100 mg/kg, islets of 50-100 μm, prior to isolation) was “lower number of beta cells” and the “number of alpha cells per islet in comparison to humans” value (pig pancreatic islets; STZ 30-50 mg/kg, islets of 50-100 μm and 150-200 μm, prior to isolation) was “lower number of alpha cells per islet”. For the same compound, the “alpha cell proportion in comparison to human islets” value (pig pancreatic islets; STZ 30-50 mg/kg, large islets (150-200 μm), prior to isolation) was “lower alpha cell proportion”, the “proportion of alpha cells per islet in comparison to humans” value (pig pancreatic islets; STZ 75-100 mg/kg, each islet size, prior to isolation) was “higher proportion of alpha cells” and the “beta cell regeneration (from duct or exocrine tissue)” value (pig pancreatic islets; STZ-treated pig pancreas) was “No sign of beta cell regeneration”. For the same compound, the “number of α and β cells per islet” value (pig pancreatic islets; from doses of 30 mg/kg STZ, prior to isolation) was “increased significantly”, the “number of α-cells” value (monkeys; after STZ treatment, monkeys) was “increased” and the “increase of glucagon mass” value (monkeys; after long-term diabetes (>53 days), treated primates) was roughly 89%.
